Several values for one entry are separate records, joined by “and”; a condition that tells them apart may be missing. Equal values may be shown once. Read-outs that look alike come from different tables or passages of the source.
Tests used:
MRSA USA 300 ATCC 1717 = test: Checkerboard MIC assay against MRSA USA300 (Example 1); assay type: cell-based, Staphylococcus aureus; conditions: MRSA USA300
[1] = test system: P. aeruginosa PA01 ATCC BAA-47; test: MIC/potentiation against P. aeruginosa PA01 (Example 1); assay type: cell-based, Pseudomonas aeruginosa; conditions: higher inoculum, 5 × 10^7 CFU/ml
E. coli 25922 = test: MIC/potentiation against E. coli 25922; assay type: cell-based, Escherichia coli; conditions: 3×10^5 CFU/mL
MRSE ATCC 29887 biofilm = test: MBEC assay (challenge plate MIC, recovery plate MBEC), MRSE 29887; assay type: cell-based, Staphylococcus epidermidis
Method: A sub-culture of MRSE was grown from the cryogenic stock on an agar plate overnight at 35° C. The MBEC plate was inoculated with 150 μL of TSB/well plus 1 μL of a stock culture made from 1 colony/mL of MRSE in TSB. The MBEC inoculator plate was sealed with Parafilm and incubated for 24 hours at 35° C. with 100 rpm shaking to facilitate biofilm formation on the prongs. Following biofilm formation, the lid of the MBEC inoculator was removed and placed in a rinse plate containing 200 μL of sterile PBS for 10 sec. Biofilm growth check (BGC) was performed by breaking a few prongs off using sterile pliers, submerging them in 1 mL PBS, and sonicating them on high for 30 minutes to dislodge the biofilm. After sonication, the biofilm solution was serial-diluted and spot-plated on agar plates for CFU counting to determine the biofilm density on the prongs.
A challenge plate was made in a new pre-sterilized 96-well plate in a checkerboard-assay pattern to test the synergistic activity of BPEI+antibiotic combinations. […] After incubation, the OD600 (optical density at 600 nm) of the recovery plate was measured using a Tecan Infinite M20 plate reader to determine the MBEC of the antimicrobial compounds tested. […] Likewise, the OD600 for the base of the challenge plate was measured […] to determine the MICs of the antimicrobial compounds.

[2] = test system: MRSE 35984 biofilm formation; test: Crystal violet biofilm formation inhibition (MBIC); assay type: cell-based, Staphylococcus epidermidis
Excerpt: Additionally, higher concentrations of BPEI corresponded to greater inhibition of biofilm formation.

P. aeruginosa 27853 = test: Checkerboard assay, P. aeruginosa 27853; assay type: cell-based, Pseudomonas aeruginosa
Method: (§1) Cells were grown at 37° C. The change in OD600 (optical density at 600 nm) was measured and recorded after 24 hr of treatment. Each checkerboard trial was done in triplicate using sterile Greiner CellStar™ flat bottom polystyrene plates, catalog #655180.
(§2) Cells were grown at 35° C. with shaking. The OD600 (optical density at 600 nm) was monitored and recorded for each sample over 24 hr. Each checkerboard trial was done in triplicate using sterile Greiner CellStar™ flat bottom polystyrene plates, catalog #655180. Each growth curve was done in duplicate.

[3] = test system: P. aeruginosa OU1 (PA OU1); test: Checkerboard assay, clinical isolate PA OU1; assay type: cell-based, Pseudomonas aeruginosa
Method: as §1, §2

[4] = test system: P. aeruginosa ATCC BAA-47; test: Checkerboard assay (Example 5), PA BAA-47; assay type: cell-based, Pseudomonas aeruginosa
Method: as §2

PA OU12 = test: Checkerboard assay, PA OU12; assay type: cell-based, Pseudomonas aeruginosa
Method: as §2

PA OU15 = test: Checkerboard assay, PA OU15; assay type: cell-based, Pseudomonas aeruginosa
Method: as §2

PA OU19 = test: Checkerboard assay, PA OU19; assay type: cell-based, Pseudomonas aeruginosa
Method: as §2

PA OU22 = test: Checkerboard assay, PA OU22; assay type: cell-based, Pseudomonas aeruginosa
Method: as §2

[5] = test system: clinical isolates OU15, OU19, and OU22; test: Checkerboard assay, isolates OU15, OU19 and OU22 reported together; assay type: cell-based, Pseudomonas aeruginosa; conditions: Pseudomonas aeruginosa
Method: as §2

[6] = test system: biofilms of P. aeruginosa BAA-47; test: MBEC assay (Calgary biofilm device), PA BAA-47; assay type: cell-based, Pseudomonas aeruginosa
Method: A sub-culture of P. aeruginosa BAA-47 was grown from the cryogenic stock on an agar plate overnight at 35° C. The MBEC plate was inoculated with 150 μL of CAMHB/well plus 1 μL of a stock culture made from 1 colony/mL of P. aeruginosa BAA-47 in CAMHB (˜5×10^5 CFU/mL). The MBEC inoculator plate was sealed with Parafilm™ and incubated for 24 hr at 35° C. with 100 rpm shaking to facilitate biofilm formation on the prongs. Following biofilm formation, the lid of the MBEC inoculator was removed and placed in a rinse plate containing 200 μL of sterile PBS for 10 sec. […] Antimicrobial solutions were serial-diluted and added to the 96-well plate, which contained 200 μL of CAMHB per well. After the rinsing step, the preformed biofilm prong lid was immediately transferred into the prepared antimicrobial challenge plate and incubated at 35° C. for 20-24 hr. […] After incubation, the OD600 of the recovery plate was measured using a Tecan Infinite M20 plate reader to determine the MBEC of the antimicrobial compounds tested. […] Likewise, the OD600 for the base of the challenge plate was measured to determine the MICs of the antimicrobial compounds. The fractional inhibitory concentration index (FICI) calculated based on the established equation was used to determine synergy (FICI≤0.5), additivity (0.5<FICI<1), and no synergy (FICI≥1).

## CCN1CCN(C(=O)N[C@@H](C(=O)N[C@@H]2C(=O)N3[C@@H]2SC(C)(C)[C@@H]3C(=O)O)c2ccccc2)C(=O)C1=O [piperacillin]
MRSA USA 300 ATCC 1717
  MIC with 4 μg/ml (6.75 μM) 600-Da BPEI: 1 µg/mL
MRSA USA 300 ATCC 1717; Staphylococcus aureus, agent alone, read-out: MIC of antibiotic only
  MIC: 4 µg/mL
[1]
  MIC, antibiotic + 0.5 μg/ml (0.85 μM) 600-Da BPEI: 16 µg/mL
  MIC, antibiotic + 4 μg/ml (4.25 μM) PEG350BPEI600: 32 µg/mL
E. coli 25922; Escherichia coli, 25922, read-out: piperacillin MIC with 8 μg/mL (13.6 μM) of BPEI600
  MIC: 0.125 µg/mL
E. coli 25922; Escherichia coli, 25922, read-out: piperacillin MIC with 32 μg/mL (34 μM) of PEG350-BPEI600
  MIC: 0.25 µg/mL
E. coli 25922; Escherichia coli, 25922, alone, read-out: piperacillin MIC
  MIC: 1 µg/mL
MRSE ATCC 29887 biofilm; MRSE 29887 biofilm
  piperacillin concentration eradicating biofilms with 128 μg/mL BPEI: 64 µg/mL
MRSE ATCC 29887 biofilm; Staphylococcus epidermidis, MRSE 29887, agent alone
  MIC: 512 µg/mL
[2]
  piperacillin concentration preventing biofilm growth with 8 μg/mL of BPEI: 16 µg/mL
  piperacillin concentration preventing biofilm growth with 16 μg/mL of BPEI: 8 µg/mL
[2]; agent alone, 24 hours
  Minimum Biofilm Inhibitory Concentration (MBIC): 64 µg/mL
P. aeruginosa 27853; BPEI amount in same cell
  PIP MIC in combination with 600 Da BPEI: 0.25 µg/mL
P. aeruginosa 27853; PEG-BPEI amount in same cell
  PIP MIC in combination with PEG-BPEI: 0.5 µg/mL
P. aeruginosa 27853; Pseudomonas aeruginosa, PA 27853, agent alone, piperacillin only, no tazobactam
  MIC: 4 µg/mL
[3]
  PIP MIC in combination with 600 Da BPEI: 8 µg/mL and 4 µg/mL
[3]; PEG-BPEI amount in same cell
  PIP MIC in combination with PEG-BPEI: 4 µg/mL
[3]; Pseudomonas aeruginosa, PA OU1, agent alone, piperacillin only, no tazobactam
  MIC: 64 µg/mL
[3]; listed as PIP
  PIP MIC in combination with 600 Da BPEI: 4 µg/mL
[4]; BPEI600 amount in same cell
  PIP MIC in combination with BPEI600: 1 µg/mL
[4]; Pseudomonas aeruginosa, PA BAA-47, agent alone
  MIC: 4 µg/mL
PA OU12; BPEI600 amount in same cell
  PIP MIC in combination with BPEI600: 8 µg/mL
PA OU12; Pseudomonas aeruginosa, PA OU12, agent alone
  MIC: 128 µg/mL
PA OU15; BPEI600 amount in same cell
  PIP MIC in combination with BPEI600: 32 µg/mL
PA OU15; Pseudomonas aeruginosa, PA OU15, agent alone, read-out: MIC
  MIC: 128 µg/mL
PA OU19; BPEI600 amount in same cell
  PIP MIC in combination with BPEI600: 1 µg/mL
PA OU19; Pseudomonas aeruginosa, PA OU19, agent alone, read-out: MIC
  MIC: > 256 µg/mL
PA OU22; BPEI600 amount in same cell
  PIP MIC in combination with BPEI600: 4 µg/mL
PA OU22; Pseudomonas aeruginosa, PA OU22, agent alone, read-out: MIC
  MIC: > 256 µg/mL
[5]; read-out: piperacillin MIC with BPEI600 at ¼th of its MIC value
  MIC: 1 to 4 µg/mL
[5]; isolates OU15, OU19, OU22, agent alone (data not shown), read-out: MIC
  MIC: > 256 µg/mL
[6]; 16 μg/mL of BPEI
  piperacillin MBEC in combination with BPEI600: 8 µg/mL
[6]; P. aeruginosa BAA-47 biofilm, agent alone
  MBEC: 256 µg/mL

Reference: patent US20210260101A1, “POTENTIATED ANTIBIOTIC COMPOSITIONS AND METHODS OF USE FOR TREATING BACTERIAL INFECTIONS AND BIOFILMS” (priority 2018, published 2021)
